Laboratory results as given in US20240156972A1 (priority 2021, published 2024).
Numbered stars: 1 amine (or outer) side, 2 acyl side, 3 side chain; on linkers, the order of the positions; unused ones are H or OH. Square brackets hold non-standard residues; d marks the D form. Peptide text beside a SMILES is read from it. X1 = O=C(C(Cc1cccc(S(=O)(=O)F)c1)N[*:1])[*:2]; Lys(N3) = [N-]=[N+]=NCCCC[C@H](N)C(=O)O; X2 = N=C(N)CCCC[C@H](N[*:1])C(=O)[*:2]; Y‑OSO2F = fluorosulfate Tyr; N3‑K = azido-Lys

Tests used:
[1] = tested on: PSMA-expressing human embryonic kidney (HEK) cells; experiment: ARM 1.2-mediated ADCP by U937 human monocytes, 2-color flow cytometry; format: cell-based
Procedure: ADCP of PSMA-expressing human cells by human monocytes was assessed in the presence of ARM 1.2 and anti-gD1 mouse IgG2a antibody (FIG. 12). ADCP was determined by 2-color flow cytometry assays, where target cell phagocytosis was measured by double positive cell events consisting of FL-1 dye-labeled U937 human monocytes and FL-4 dye-labeled engineered human embryonic kidney (HEK) cells expressing PSMA.
Robust ADCP was only observed when cell surface PSMA and anti-HSV antibody are both present (HEK+_EXP).

[2] = Stability of covalent antibody-binding peptides in 1×PBS by LC-HRMS; format: physicochemical; conditions: 500 μM, room temperature
Procedure: Liquid chromatography-high resolution mass spectrometry (LC-HRMS) data was obtained on a BRUKER MicroTOF II mass spectrometer. Samples were dissolved in 1×PBS at 500 μM concentrations and were monitored for stability at room temperature over indicated periods of time. Specific m/z −20 amu (loss of H^+ and F^−) and m/z −2 amu (F/OH exchange) masses were monitored to probe off-pathway cyclization and hydrolysis reactions, respectively.
To evaluate the stability of peptide 5 (gDR(F10FSY)), the peptide (500 μM) was incubated in 1×PBS at room temperature and analyzed by LC-HRMS at 0, 24, 48 and 72 hours (FIG. 83). […] Hydrolyzed peptide appeared to elute just before intact peptide after 3 days of incubation.
To evaluate the stability of peptide 7 (ASF-gDR), the peptide (500 μM) was incubated in 1×PBS at room temperature and analyzed by LC-HRMS at 0, 24, 48 and 72 hours.

[3] = Stability of aryl sulfonyl fluoride group in PBS by 19F NMR; format: physicochemical; conditions: PBS (90% PBS), 10% D2O, room temperature, F− appearance, read-out: half-life of sulfonyl fluoride hydrolysis (converted)
Procedure: A 700 MHz NMR was used to measure ^19F NMR spectra. Bruker TopSpin 4.0.9 was used to process and analyze spectra. GraphPad Prism 8 software was used to visualize and perform non-linear regression of acquired data.
Peptide 7 (ASF-gDR) was used to investigate the stability of the meta-aryl sulfonyl fluoride (ASF) group in 1×PBS at room temperature. The sample was prepared at a 0.5 mM concentration in 90% PBS, 10% D2O. A 700 MHz NMR was used to monitor sulfonyl fluoride disappearance and fluoride (F^− (aq)) appearance overtime, relative to a TFA internal standard. To quantify fluoride loss and gain, peaks were positively phased and integrated relative to the TFA internal standard, which was held constant at three fluoride atoms. A plot of fluoride leaving group appearance over time was fitted with the first order decay equation.
Half-life was calculated from a plot of integrated F^− over time using Equation 1.

For `CSCC[C@H](NC(=O)[C@@H](C)NC(=O)[C@@H](CC(=O)O)NC(=O)[C@H]1CCCN1C(=O)[C@@H](CC(N)=O)NC(=O)[C@H](CCCNC(=N)N)NC(=O)[C@@H](Cc1ccccc1)NC(=O)[C@H](CCCNC(=N)N)NC(=O)CNC(=O)[C@H](CCCCN)NC(=O)[C@@H](CC(=O)O)NC(=O)[C@H](CC(C)C)NC(=O)[C@H](CCCCn1cc(COCCOCCOCCOCCOCCOCCOCCOCCNC(=O)NCCCC[C@H](NC(=O)N[C@@H](CCC(=O)O)C(=O)O)C(=O)O)nn1)NC(C)=O)C(=O)N[C@H](CCCCN)C(=O)N[C@@H](CC(C)C)C(N)=O` [ARM 1.2, GUL-PEG8-HSVqD1], the ADCP ([1]; HEK+_EXP: cell surface PSMA and anti-HSV antibody both present) was “Robust ADCP” and the “ADCP in control samples” value ([1]; isotype IgG, no antibody, free competitor, or HEK cells without PSMA) was “complete lack of ADCP”.

In the case of `CSCC[C@H](NC(=O)[C@H](CCCCC(=N)N)NC(=O)[C@H](CC(C)C)NC(=O)[C@H](CCCCN=[N+]=[N-])NC(=O)C(Cc1cccc(S(=O)(=O)F)c1)NC(C)=O)C(=O)N[C@@H](C)C(=O)N[C@@H](CC(=O)O)C(=O)N1CCC[C@H]1C(=O)N[C@@H](CC(N)=O)C(=O)N[C@@H](CCCNC(=N)N)C(=O)N[C@@H](Cc1ccccc1)C(=O)N[C@@H](CCCNC(=N)N)C(=O)NCC(=O)N[C@@H](CCCNC(=N)N)C(=O)N[C@@H](CC(=O)O)C(=O)N[C@@H](CC(C)C)C(N)=O` (some centres unmarked) [Peptide 7] (Ac-[X1][Lys(N3)]L[X2]MADPNRFRGRDL-NH2), the SuFEx hydrolysis ([2]; after 24 hours) is reported as roughly 50% and the half-life at 0.5 mM [3] is reported as 8.71 h.

In the case of “Ac-(N3-K)-LRMADPNR-(Y-OSO2F)-RGRDL ({Ac-N3‑K}-LRMADPNR-{Y‑OSO2F-Arg-Gly-Arg-Asp-Leu-NH2}) [Peptide 5]”, the “stability by LC-HRMS” value ([2]; 0-72 hours) is reported as “stable compound”.
